Data on seven cell lines can be found in the supplement of paper PMC10307832.

What all share (experiment): relative viability (nuclei count vs DMSO), 5 days (fraction); higher = more cells survive
Compound in the experiment “OSI-027 + Foretinib”: COc1cccc2cc(-c3nc([C@H]4CC[C@H](C(=O)O)CC4)n4ncnc(N)c34)[nH]c12 [OSI-027] + COc1cc2c(Oc3ccc(NC(=O)C4(C(=O)Nc5ccc(F)cc5)CC4)cc3F)ccnc2cc1OCCCN1CCOCC1 [Foretinib] (partner 0.25 µM)
Put shortly:
(§1)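 A single step with final 0.05% Triton X-100, 1% formaldehyde and 1 ug/ml Hoechst fixed the cells and stained nuclei 5 days after treatment. Lung cancer cell lines in 1536-well plates had been treated by pin tool the day after seeding with one drug alone or a fixed anchor-drug dose plus five library-drug doses (not always all listed) in √10 steps, and nuclei were counted on 4× images. Relative viability is the ratio of nuclei in treated wells to nuclei in vehicle wells, taken as the median of duplicate plates.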

Compound in the experiment “OSI-027 + Phenformin”: COc1cccc2cc(-c3nc([C@H]4CC[C@H](C(=O)O)CC4)n4ncnc(N)c34)[nH]c12 [OSI-027] + N=C(N)NC(=N)NCCc1ccccc1 [Phenformin] (partner 250 µM)
In outline:
as §1

Compound in the experiment “OSI-027 + Decitabine”: COc1cccc2cc(-c3nc([C@H]4CC[C@H](C(=O)O)CC4)n4ncnc(N)c34)[nH]c12 [OSI-027] + Nc1ncn([C@H]2C[C@H](O)[C@@H](CO)O2)c(=O)n1 [Decitabine] (partner 2 µM)
In outline: as §1

Compound in the experiment “OSI-027 + Olaparib”: COc1cccc2cc(-c3nc([C@H]4CC[C@H](C(=O)O)CC4)n4ncnc(N)c34)[nH]c12 [OSI-027] + O=C(c1cc(Cc2n[nH]c(=O)c3ccccc23)ccc1F)N1CCN(C(=O)C2CC2)CC1 [Olaparib] (partner 8 µM)
Put shortly:
as §1

For NCI-H23, the relative viability with OSI-027 + Foretinib (first compound 0.01 µM) is 0.908; with OSI-027 + Foretinib (first compound 0.03162 µM) it was 0.937; in the experiment with OSI-027 + Foretinib (first compound 0.1 µM), 0.929; in the experiment with OSI-027 + Foretinib (first compound 0.3162 µM), 0.653; with OSI-027 + Foretinib (first compound 1 µM), 0.464; in the experiment with OSI-027 + Phenformin (first compound 0.01 µM), 0.824. Further, the relative viability worked out at 0.767 in the experiment with OSI-027 + Phenformin (first compound 0.03162 µM); 0.808 in the experiment with OSI-027 + Phenformin (first compound 0.1 µM); 0.669 in the experiment with OSI-027 + Phenformin (first compound 0.3162 µM); 0.533 in the experiment with OSI-027 + Phenformin (first compound 1 µM); 0.296 with OSI-027 + Decitabine (first compound 0.01 µM); 0.336 with OSI-027 + Decitabine (first compound 0.03162 µM). For the same cell line, the relative viability with OSI-027 + Decitabine (first compound 0.1 µM) was found to be 0.305; in the experiment with OSI-027 + Decitabine (first compound 0.3162 µM), 0.278; with OSI-027 + Decitabine (first compound 1 µM) it was 0.268; with OSI-027 + Olaparib (first compound 0.01 µM), 0.339; with OSI-027 + Olaparib (first compound 0.03162 µM), 0.341; with OSI-027 + Olaparib (first compound 0.1 µM), 0.3. Besides, the relative viability with OSI-027 + Olaparib (first compound 0.3162 µM) came to 0.141; with OSI-027 + Olaparib (first compound 1 µM), 0.188.

HCC-15: the relative viability with OSI-027 + Foretinib (first compound 0.01 µM) is 1.11; with OSI-027 + Foretinib (first compound 0.03162 µM), 0.954; in the experiment with OSI-027 + Foretinib (first compound 0.1 µM) it was 0.969; in the experiment with OSI-027 + Foretinib (first compound 0.3162 µM) it was 0.895; with OSI-027 + Foretinib (first compound 1 µM), 0.58; in the experiment with OSI-027 + Phenformin (first compound 0.01 µM), 0.465. Besides, the relative viability in the experiment with OSI-027 + Phenformin (first compound 0.03162 µM) is 0.458; with OSI-027 + Phenformin (first compound 0.1 µM), 0.45; with OSI-027 + Phenformin (first compound 0.3162 µM) it was 0.389; with OSI-027 + Phenformin (first compound 1 µM), 0.279; with OSI-027 + Decitabine (first compound 0.01 µM), 0.571; with OSI-027 + Decitabine (first compound 0.03162 µM), 0.642. The relative viability was found to be 0.57 with OSI-027 + Decitabine (first compound 0.1 µM); 0.537 with OSI-027 + Decitabine (first compound 0.3162 µM); 0.372 with OSI-027 + Decitabine (first compound 1 µM); 0.799 in the experiment with OSI-027 + Olaparib (first compound 0.01 µM); 0.745 in the experiment with OSI-027 + Olaparib (first compound 0.03162 µM); 0.729 with OSI-027 + Olaparib (first compound 0.1 µM). Also, the relative viability with OSI-027 + Olaparib (first compound 0.3162 µM) was 0.683; with OSI-027 + Olaparib (first compound 1 µM), 0.397.

On to NCI-H1437, for which the relative viability came to 1.27 with OSI-027 + Foretinib (first compound 0.01 µM); 1.26 in the experiment with OSI-027 + Foretinib (first compound 0.03162 µM); 1.34 with OSI-027 + Foretinib (first compound 0.1 µM); 1.28 with OSI-027 + Foretinib (first compound 0.3162 µM); 0.691 with OSI-027 + Foretinib (first compound 1 µM); 0.31 in the experiment with OSI-027 + Phenformin (first compound 0.01 µM). Moreover, the relative viability turned out to be 0.292 with OSI-027 + Phenformin (first compound 0.03162 µM); 0.296 in the experiment with OSI-027 + Phenformin (first compound 0.1 µM); 0.286 with OSI-027 + Phenformin (first compound 0.3162 µM); 0.211 in the experiment with OSI-027 + Phenformin (first compound 1 µM); 0.499 with OSI-027 + Decitabine (first compound 0.01 µM); 0.614 in the experiment with OSI-027 + Decitabine (first compound 0.03162 µM). Further, the relative viability came out at 0.63 in the experiment with OSI-027 + Decitabine (first compound 0.1 µM); 0.493 in the experiment with OSI-027 + Decitabine (first compound 0.3162 µM); 0.387 with OSI-027 + Decitabine (first compound 1 µM); 0.646 with OSI-027 + Olaparib (first compound 0.01 µM); 0.664 in the experiment with OSI-027 + Olaparib (first compound 0.03162 µM); 0.63 with OSI-027 + Olaparib (first compound 0.1 µM). In addition, the relative viability with OSI-027 + Olaparib (first compound 0.3162 µM) is 0.644; with OSI-027 + Olaparib (first compound 1 µM) it was 0.53.

Turning to A-427, the relative viability with OSI-027 + Foretinib (first compound 0.01 µM) stood at 0.952; with OSI-027 + Foretinib (first compound 0.03162 µM), 1; with OSI-027 + Foretinib (first compound 0.1 µM), 0.89; with OSI-027 + Foretinib (first compound 0.3162 µM), 0.707; with OSI-027 + Foretinib (first compound 1 µM), 0.423; with OSI-027 + Phenformin (first compound 0.01 µM), 0.296. Further, the relative viability was found to be 0.332 in the experiment with OSI-027 + Phenformin (first compound 0.03162 µM); 0.289 with OSI-027 + Phenformin (first compound 0.1 µM); 0.269 with OSI-027 + Phenformin (first compound 0.3162 µM); 0.297 with OSI-027 + Phenformin (first compound 1 µM); 0.522 with OSI-027 + Decitabine (first compound 0.01 µM); 0.59 with OSI-027 + Decitabine (first compound 0.03162 µM). In addition, the relative viability with OSI-027 + Decitabine (first compound 0.1 µM) amounted to 0.469; with OSI-027 + Decitabine (first compound 0.3162 µM), 0.484; with OSI-027 + Decitabine (first compound 1 µM), 0.37; with OSI-027 + Olaparib (first compound 0.01 µM) it was 0.817; with OSI-027 + Olaparib (first compound 0.03162 µM), 0.835; with OSI-027 + Olaparib (first compound 0.1 µM), 0.643. The values for the relative viability in the experiment with OSI-027 + Olaparib (first compound 0.3162 µM) and with OSI-027 + Olaparib (first compound 1 µM) were 0.593 and 0.506, respectively.

Take NCI-H1975: the relative viability with OSI-027 + Foretinib (first compound 0.01 µM) was determined as 1; with OSI-027 + Foretinib (first compound 0.03162 µM) it was 0.954; with OSI-027 + Foretinib (first compound 0.1 µM) it was 0.783; with OSI-027 + Foretinib (first compound 0.3162 µM), 0.841; with OSI-027 + Foretinib (first compound 1 µM), 0.635; in the experiment with OSI-027 + Phenformin (first compound 0.01 µM), 0.435. In addition, the relative viability in the experiment with OSI-027 + Phenformin (first compound 0.03162 µM) is 0.412; with OSI-027 + Phenformin (first compound 0.1 µM) it was 0.379; in the experiment with OSI-027 + Phenformin (first compound 0.3162 µM), 0.363; with OSI-027 + Phenformin (first compound 1 µM), 0.298; with OSI-027 + Decitabine (first compound 0.01 µM), 0.392; with OSI-027 + Decitabine (first compound 0.03162 µM), 0.395. In addition, the relative viability stood at 0.398 with OSI-027 + Decitabine (first compound 0.1 µM); 0.434 with OSI-027 + Decitabine (first compound 0.3162 µM); 0.4 with OSI-027 + Decitabine (first compound 1 µM); 0.803 in the experiment with OSI-027 + Olaparib (first compound 0.01 µM); 0.609 in the experiment with OSI-027 + Olaparib (first compound 0.03162 µM); 0.755 in the experiment with OSI-027 + Olaparib (first compound 0.1 µM). In addition, the relative viability with OSI-027 + Olaparib (first compound 0.3162 µM) turned out to be 0.76; with OSI-027 + Olaparib (first compound 1 µM), 0.478.

Regarding SK-LU-1, the relative viability is 0.911 with OSI-027 + Foretinib (first compound 0.01 µM); 0.816 with OSI-027 + Foretinib (first compound 0.03162 µM); 0.586 with OSI-027 + Foretinib (first compound 0.1 µM); 0.433 with OSI-027 + Foretinib (first compound 0.3162 µM); 0.28 with OSI-027 + Foretinib (first compound 1 µM); 0.515 with OSI-027 + Phenformin (first compound 0.01 µM). The relative viability in the experiment with OSI-027 + Phenformin (first compound 0.03162 µM) came to 0.467; in the experiment with OSI-027 + Phenformin (first compound 0.1 µM) it was 0.447; with OSI-027 + Phenformin (first compound 0.3162 µM) it was 0.318; with OSI-027 + Phenformin (first compound 1 µM), 0.219; with OSI-027 + Decitabine (first compound 0.01 µM), 0.594; in the experiment with OSI-027 + Decitabine (first compound 0.03162 µM), 0.631. The relative viability in the experiment with OSI-027 + Decitabine (first compound 0.1 µM) was 0.663; in the experiment with OSI-027 + Decitabine (first compound 0.3162 µM) it was 0.483; with OSI-027 + Decitabine (first compound 1 µM), 0.406; with OSI-027 + Olaparib (first compound 0.01 µM), 0.399; with OSI-027 + Olaparib (first compound 0.03162 µM), 0.43; in the experiment with OSI-027 + Olaparib (first compound 0.1 µM), 0.396. Further, the relative viability was 0.359 with OSI-027 + Olaparib (first compound 0.3162 µM) and 0.265 with OSI-027 + Olaparib (first compound 1 µM).

In the case of NCI-H520, the relative viability with OSI-027 + Foretinib (first compound 0.01 µM) came out at 0.894; with OSI-027 + Foretinib (first compound 0.03162 µM), 0.796; in the experiment with OSI-027 + Foretinib (first compound 0.1 µM), 0.59; with OSI-027 + Foretinib (first compound 0.3162 µM), 0.333; in the experiment with OSI-027 + Foretinib (first compound 1 µM), 0.31; in the experiment with OSI-027 + Phenformin (first compound 0.01 µM), 0.581. Also, the relative viability with OSI-027 + Phenformin (first compound 0.03162 µM) stood at 0.456; in the experiment with OSI-027 + Phenformin (first compound 0.1 µM), 0.28; with OSI-027 + Phenformin (first compound 0.3162 µM), 0.21; in the experiment with OSI-027 + Phenformin (first compound 1 µM) it was 0.187; with OSI-027 + Decitabine (first compound 0.01 µM), 0.583; in the experiment with OSI-027 + Decitabine (first compound 0.03162 µM) it was 0.482. Besides, the relative viability with OSI-027 + Decitabine (first compound 0.1 µM) is 0.47; with OSI-027 + Decitabine (first compound 0.3162 µM) it was 0.363; with OSI-027 + Decitabine (first compound 1 µM) it was 0.228; with OSI-027 + Olaparib (first compound 0.01 µM), 0.286; with OSI-027 + Olaparib (first compound 0.03162 µM) it was 0.313; with OSI-027 + Olaparib (first compound 0.1 µM), 0.293. Besides, the values for the relative viability in the experiment with OSI-027 + Olaparib (first compound 0.3162 µM) and in the experiment with OSI-027 + Olaparib (first compound 1 µM) were 0.216 and 0.208, respectively.
